We go through 3 compounds from US12168678B2, “Heme sequesting peptides and uses therefor” (Board of Regents, The University of Texas System, priority 2019, dated 2024).

For data set [1], the system named is A549 NSCLC cells. Kind of data set: Cell migration assay (Transwell inserts). The following applies: 10 μM heme. In kind it is cell-based, human. On the procedure: (§1) Cell proliferation was measured by detecting the luciferase activity in live cells and by using a hemocytometer. Cell migration and invasion assays were carried out with BD Falcon cell culture inserts (Corning Life Sciences) and the manufacturer's cell migration, chemotaxis, and invasion assay protocols. For the colony formation assay, 5000 NSCLC cells were seeded in every well in 6-well tissue culture plates in triplicates. Cells were treated with 0.5 mM succinyl acetone (Sigma Aldrich), 10 μM HSPs, 50 μM deferoxamine mesylate (DFX), 10 μM zinc (II) protoporphyrin IX, 10 μM tin (IV) protoporphyrin IX, or 50 μM ferric chloride for 6 days. For heme add-back experiments, 10 μM heme was included. Medium was changed every 3 days. After 6 days of treatment, cells were fixed with 70% ethanol and stained with 0.5% crystal violet. Images were acquired by using Carestream Gel Logic GL-112 imaging system.

The subject of data set [2] is H1299 NSCLC cells. Kind of data set: Cell migration assay (Transwell inserts). In kind it is cell-based, human. The following applies: heme add-back 10 μM, b23 prints 10 mM. On the procedure:
as §1

Data set [3] concerns H1299 NSCLC cells. In words: Cell invasion assay (Matrigel invasion chambers). In kind it is cell-based, human. The following applies: heme add-back 10 μM, b23 prints 10 mM.
Data set [4] relates to A549 NSCLC cells. Kind of data set: Cell invasion assay (Matrigel invasion chambers). The format is cell-based, human. Particulars: 10 μM heme.
In another data set the test system is A549 cells. In words: Colony formation assay. The format is cell-based, human. The following applies: for effect of heme addition on colony formation: 10 μM heme add-back; for effect of iron addition on colony formation: 50 μM ferric chloride; for colony formation: 6 days, 0.5 mM succinyl acetone, 10 μM HSPs, 50 μM DFX, 10 μM SnPP. On the procedure: as §1
Another data set relates to H1299 cells. Kind of data set: Colony formation assay. In kind it is cell-based, human. The following applies: for effect of heme addition on colony formation: 10 μM heme add-back; for effect of iron addition on colony formation: 50 μM ferric chloride; for colony formation: 6 days, 0.5 mM succinyl acetone, 10 μM HSPs, 50 μM DFX, 10 μM SnPP. On the procedure:
as §1

The test system of data set [5] is H1299 NSCLC lung tumor xenografts. The format is in vivo. Particulars: SA 50 mg/kg I.V. every 3 days, from 4 days after implantation.
Data set [6] deals with 5-aminolevulic synthase (ALAS1). The following applies: previous studies, non-erythroid cells; cited from earlier work.
For data set [7] the following is noted: references 55, 56; cited from earlier work.
The next data set deals with heme oxygenases. The following applies: reference 51; cited from earlier work.

Structures can show the parent of a compound that is named as a salt.

For `CC(=O)CC(=O)CCC(=O)O` [succinyl acetone, Succinyl acetone], the “effect of heme addition on reduced migration” value with A549 NSCLC cells [1] and in the data set on H1299 NSCLC cells [2] was “largely reversed” throughout. In addition, the “effect of heme addition on reduced invasion” value in the data set on H1299 NSCLC cells [3] and in the data set with A549 NSCLC cells [4] was “largely reversed” each time. Further, the “effect of heme addition on colony formation” value with A549 cells and in the data set on H1299 cells was “largely reversed” throughout. Moreover, the “effect of iron addition on colony formation” value (“effect of iron addition” for short) in the data set on A549 cells and in the data set on H1299 cells was “did not reverse” in each case. Moreover, the colony formation result with A549 cells and in the data set with H1299 cells was “strongly suppressed colony formation” throughout. Also, the “suppression of lung tumors (BLI)” value in [5] was “not very effective”. In addition, the “inhibition of heme biosynthesis” value in [6] is on record as “effective inhibitor”. In addition, in data set [7], the toxicity to animals result was “low toxicity”.
Take Tin (IV) protoporphyrin [SnPP]: the colony formation result in the data set with A549 cells and with H1299 cells was “appeared to reduce colony formation” in each case. Further, the “inhibition of the activities of heme oxygenases” value in the data set with heme oxygenases is reported as “strong inhibitor”.
With `CC(=O)N(O)CCCCCNC(=O)CCC(=O)N(O)CCCCCNC(=O)CCC(=O)N(O)CCCCCN` [DFX, Deferoxamine mesylate], in the data set on A549 cells, the “effect of heme addition on colony formation” value is “partially reversed”, the “effect of iron addition” value is “largely reversed” and the colony formation result is reported as “reduced colony formation”. Moreover, in the data set with H1299 cells, the “effect of heme addition on colony formation” value is “partially reversed”, the “effect of iron addition” value is recorded as “largely reversed” and the colony formation entry is “reduced colony formation”.
